Assay results as given in publication PMC5612656, “In vitro and in vivo effects of 2,4 diaminoquinazoline inhibitors of the decapping scavenger enzyme DcpS: Context-specific modulation of SMN transcript levels” (PLoS ONE, 2017).

Test system: spinal cord transcriptome
Assay: RNA-Seq of spinal cord tissue from 2B/- and 2B/+ mice
Assay type: in vivo, mouse
[1] = spinal cord, 2B/- RG3039 vs 2B/- vehicle, adjusted p-value 2.55E-55

`Nc1nc(N)c2c(OCC3CCN(Cc4c(Cl)cccc4Cl)CC3)cccc2n1` [RG3039] was tested, and the “log2(fold-change)” value (2B-Veh vs 2B-RG3039, gene Osbpl3) was 0.3051, the “log2(fold-change)” value (2B-Veh vs 2B-RG3039, gene Phf13) was 0.2527 and the “log2(fold-change)” value (2B-Veh vs 2B-RG3039, gene Pigz) was -0.3408. The “log2(fold-change)” value (2B-Veh vs 2B-RG3039, gene Pik3r1) was -0.2417, the “log2(fold-change)” value (2B-Veh vs 2B-RG3039, gene Plcb1) was -0.2064 and the “log2(fold-change)” value (2B-Veh vs 2B-RG3039, gene Pld2) was 0.3673. The “log2(fold-change)” value (2B-Veh vs 2B-RG3039, gene Prr18) was -0.2462, the “log2(fold-change)” value (2B-Veh vs 2B-RG3039, gene Ptbp1) was 0.3576 and the “log2(fold-change)” value (2B-Veh vs 2B-RG3039, gene Ptpdc1) was -0.3585. For the same compound, the “log2(fold-change)” value (2B-Veh vs 2B-RG3039, gene Pvrl3) was 0.3266, the “log2(fold-change)” value (2B-Veh vs 2B-RG3039, gene Rab31) was -0.2849 and the “log2(fold-change)” value (2B-Veh vs 2B-RG3039, gene Ralb) was 0.1805. The “log2(fold-change)” value (2B-Veh vs 2B-RG3039, gene Rapgef3) was -0.3391, the “log2(fold-change)” value (2B-Veh vs 2B-RG3039, gene Rasal1) was -0.2345 and the “log2(fold-change)” value (2B-Veh vs 2B-RG3039, gene Rgs19) was 0.2532. The “log2(fold-change)” value (2B-Veh vs 2B-RG3039, gene Serpina3n) was -0.2457, the “log2(fold-change)” value (2B-Veh vs 2B-RG3039, gene Sh3pxd2a) was 0.3024 and the “log2(fold-change)” value (2B-Veh vs 2B-RG3039, gene Slc39a11) was 0.2556. For the same compound, the “log2(fold-change)” value (2B-Veh vs 2B-RG3039, gene Sox13) was 0.3712, the “log2(fold-change)” value (2B-Veh vs 2B-RG3039, gene Spon1) was -0.207 and the “log2(fold-change)” value (2B-Veh vs 2B-RG3039, gene Srsf9) was 0.255. The “log2(fold-change)” value (2B-Veh vs 2B-RG3039, gene Stxbp3a) was -0.2437, the “log2(fold-change)” value (2B-Veh vs 2B-RG3039, gene Swap70) was 0.2496 and the “log2(fold-change)” value (2B-Veh vs 2B-RG3039, gene Tfrc) was 0.316. The “log2(fold-change)” value (2B-Veh vs 2B-RG3039, gene Tlcd1) was 0.158, the “log2(fold-change)” value (2B-Veh vs 2B-RG3039, gene Tmod1) was -0.2447 and the “log2(fold-change)” value (2B-Veh vs 2B-RG3039, gene Tubb2b) was 0.2818. The “log2(fold-change)” value (2B-Veh vs 2B-RG3039, gene Vgf) was 0.2475, the “log2(fold-change)” value (2B-Veh vs 2B-RG3039, gene Vps37b) was 0.2543 and the “log2(fold-change)” value (2B-Veh vs 2B-RG3039, gene Wbscr27) was -0.2613. The “log2(fold-change)” value (2B-Veh vs 2B-RG3039, gene Wnt7b) was 0.3209, the “log2(fold-change)” value (2B-Veh vs 2B-RG3039, gene Zfp276) was -0.2722 and the “log2(fold-change)” value (2B-Veh vs 2B-RG3039, gene Zfp692) was -0.2503. The “log2(fold-change)” value (2B-Veh vs 2B-RG3039, gene Zfp839) was -0.2535, the “log2(fold-change)” value (2B-Veh vs 2B-RG3039, gene Zhx3) was -0.2128 and the “log2(fold-change)” value (2B-Veh vs 2B-RG3039, gene Zmat1) was -0.3673. The “log2(fold-change)” value (mouse, in vivo) was 0.2853, the “log2(fold-change) Chodl transcript” value (spinal cord RNA-Seq, 2B- RG vs. 2B+ Veh (sheet WT-Veh_vs_2B-859_all), adjusted p-value 1.03E-56) was -2.122 and the “log2(fold-change) 4632404H12Rik transcript” value (spinal cord RNA-Seq, 2B- RG vs. 2B+ Veh (sheet WT-Veh_vs_2B-859_all), adjusted p-value 1.30E-36) was 1.504. For the same compound, the “log2(fold-change) Spp1 transcript” value (spinal cord RNA-Seq, 2B- RG vs. 2B+ Veh (sheet WT-Veh_vs_2B-859_all), adjusted p-value 1.87E-42) was -1.107, the “log2(fold-change) Gm26924 transcript” value (spinal cord RNA-Seq, 2B- RG vs. 2B+ Veh (sheet WT-Veh_vs_2B-859_all), adjusted p-value 5.93E-43) was -1.355 and the “log2(fold-change) Ahnak2 transcript” value (spinal cord RNA-Seq, 2B- RG vs. 2B+ Veh (sheet WT-Veh_vs_2B-859_all), adjusted p-value 8.66E-40) was -1.26. For the same compound, the “log2(fold-change) Tgtp1 transcript” value (spinal cord RNA-Seq, RG3039 2B/- vs. vehicle 2B/-, adjusted p-value 0.000273937) was 1.848, the “log2(fold-change) Cfd transcript” value (spinal cord RNA-Seq, RG3039 2B/- vs. vehicle 2B/-, adjusted p-value 0.000300401) was -2.755 and the “log2(fold-change) Kcnb2 transcript” value (spinal cord RNA-Seq, RG3039 2B/- vs. vehicle 2B/-, adjusted p-value 0.000330855) was 1.602. For the same compound, the “log2(fold-change) Fabp4 transcript” value (spinal cord RNA-Seq, RG3039 2B/- vs. vehicle 2B/-, adjusted p-value 0.000349974) was -2.327, the “log2(fold-change) Reg3b transcript” value (spinal cord RNA-Seq, RG3039 2B/- vs. vehicle 2B/-, adjusted p-value 0.00104281) was 1.9386 and the “log2(fold-change) Saa3 transcript” value (spinal cord RNA-Seq, RG3039 2B/- vs. vehicle 2B/-, adjusted p-value 0.0020931) was -2.03. The “log2(fold-change) Tgtp2 transcript” value (spinal cord RNA-Seq, RG3039 2B/- vs. vehicle 2B/-, adjusted p-value 0.00223451) was 1.688, the “log2(fold-change) Slfn10-ps transcript” value (spinal cord RNA-Seq, RG3039 2B/- vs. vehicle 2B/-, adjusted p-value 0.00233365) was 1.807 and the “log2(fold-change) Gm10629 transcript” value (spinal cord RNA-Seq, RG3039 2B/- vs. vehicle 2B/-, adjusted p-value 0.00341009) was 1.585. The “log2(fold-change) Myh4 transcript” value (spinal cord RNA-Seq, RG3039 2B/- vs. vehicle 2B/-, adjusted p-value 0.0039906) was -2.1375, the “log2(fold-change) Amtn transcript” value (spinal cord RNA-Seq, RG3039 2B/- vs. vehicle 2B/-, adjusted p-value 0.00445577) was 1.585 and the “log2(fold-change) Gm21807 transcript” value (spinal cord RNA-Seq, RG3039 2B/- vs. vehicle 2B/-, adjusted p-value 0.00737848) was 1.663. For the same compound, the “log2(fold-change) Ak3l2-ps transcript” value (spinal cord RNA-Seq, RG3039 2B/- vs. vehicle 2B/-, adjusted p-value 0.0076012) was 1.688, the “log2(fold-change) Gm25014 transcript” value (spinal cord RNA-Seq, RG3039 2B/- vs. vehicle 2B/-, adjusted p-value 0.00761921) was 1.585 and the “log2(fold-change) Mrgprd transcript” value (spinal cord RNA-Seq, RG3039 2B/- vs. vehicle 2B/-, adjusted p-value 0.0177741) was 1.807. The “log2(fold-change) Ucp1 transcript” value (spinal cord RNA-Seq, RG3039 2B/- vs. vehicle 2B/-, adjusted p-value 0.0259172) was -1.858, the “log2(fold-change) Scn10a transcript” value (spinal cord RNA-Seq, RG3039 2B/- vs. vehicle 2B/-, adjusted p-value 0.0498434) was 1.7 and the “log2(fold-change) 4930481A15Rik transcript” value (spinal cord RNA-Seq, RG3039 2B/- vs. vehicle 2B/-, adjusted p-value 1.16E-05) was -2.273. The “log2(fold-change) Gm13558 transcript” value (spinal cord RNA-Seq, RG3039 2B/- vs. vehicle 2B/-, adjusted p-value 1.21E-05) was -2, the “log2(fold-change) Itga2 transcript” value (spinal cord RNA-Seq, RG3039 2B/- vs. vehicle 2B/-, adjusted p-value 1.25E-05) was 1.883 and the “log2(fold-change) Ifi44 transcript” value (spinal cord RNA-Seq, RG3039 2B/- vs. vehicle 2B/-, adjusted p-value 1.41E-22) was 2.678. The “log2(fold-change) Etnppl transcript” value (spinal cord RNA-Seq, RG3039 2B/- vs. vehicle 2B/-, adjusted p-value 2.00E-23) was -2.764, the “log2(fold-change) Ada transcript” value (spinal cord RNA-Seq, RG3039 2B/- vs. vehicle 2B/-, adjusted p-value 2.62E-17) was -2.097 and the “log2(fold-change) Sgk1 transcript” value (spinal cord RNA-Seq, RG3039 2B/- vs. vehicle 2B/-, adjusted p-value 2.77E-28) was -1.812. The “log2(fold-change) Dpep1 transcript” value (spinal cord RNA-Seq, RG3039 2B/- vs. vehicle 2B/-, adjusted p-value 3.30E-07) was -2.385, the “log2(fold-change) Tmem52 transcript” value (spinal cord RNA-Seq, RG3039 2B/- vs. vehicle 2B/-, adjusted p-value 3.37E-32) was -2.209 and the “log2(fold-change) A830073O21Rik transcript” value (spinal cord RNA-Seq, RG3039 2B/- vs. vehicle 2B/-, adjusted p-value 3.74E-09) was 1.69. For the same compound, the “log2(fold-change) Usp18 transcript” value (spinal cord RNA-Seq, RG3039 2B/- vs. vehicle 2B/-, adjusted p-value 4.16E-13) was 1.709, the “log2(fold-change) Slc10a6 transcript” value (spinal cord RNA-Seq, RG3039 2B/- vs. vehicle 2B/-, adjusted p-value 4.39E-06) was -2.443 and the “log2(fold-change) Oas1a transcript” value (spinal cord RNA-Seq, RG3039 2B/- vs. vehicle 2B/-, adjusted p-value 4.66E-07) was 1.712. The “log2(fold-change) Plin4 transcript” value (spinal cord RNA-Seq, RG3039 2B/- vs. vehicle 2B/-, adjusted p-value 4.90E-27) was -3.356, the “log2(fold-change) Map3k6 transcript” value (spinal cord RNA-Seq, RG3039 2B/- vs. vehicle 2B/-, adjusted p-value 5.02E-31) was -2.942 and the “log2(fold-change) 8430408G22Rik transcript” value (spinal cord RNA-Seq, RG3039 2B/- vs. vehicle 2B/-, adjusted p-value 5.30E-09) was -1.92. The “log2(fold-change) Fmo2 transcript” value (spinal cord RNA-Seq, RG3039 2B/- vs. vehicle 2B/-, adjusted p-value 6.18E-07) was -2.118, the “log2(fold-change) Tmem82 transcript” value (spinal cord RNA-Seq, RG3039 2B/- vs. vehicle 2B/-, adjusted p-value 7.17E-13) was -2.075 and the “log2(fold-change) Sds transcript” value (spinal cord RNA-Seq, RG3039 2B/- vs. vehicle 2B/-, adjusted p-value 7.23E-13) was -2.356. The “log2(fold-change) Gp2 transcript” value (spinal cord RNA-Seq, RG3039 2B/- vs. vehicle 2B/-, adjusted p-value 7.46E-06) was 1.536, the “log2(fold-change) Gm11827 transcript” value (spinal cord RNA-Seq, RG3039 2B/- vs. vehicle 2B/-, adjusted p-value 7.82E-08) was -2.193 and the “log2(fold-change) Chml transcript” value (spinal cord RNA-Seq, RG3039 2B/- vs. vehicle 2B/-, adjusted p-value 8.74E-18) was 1.585. For the same compound, the “log2(fold-change) Gm15622 transcript” value (spinal cord RNA-Seq, RG3039 2B/- vs. vehicle 2B/-, adjusted p-value 9.01E-05) was 2.027, the “share of detectable genes modulated” value (spinal cord, 2B/+ control mice) was “less than 0.5%” and the “log2(fold-change), gene Mt1” value (spinal cord, 2B/- RG3039 vs 2B/- vehicle, adjusted p-value 1.29E-57) was -1.302. For the same compound, the “log2(fold-change), gene Polr3e” value (spinal cord, 2B/- RG3039 vs 2B/- vehicle, adjusted p-value 1.67E-54) was -1.443, the “log2(fold-change), gene Fam107a” value [1] was -1.657 and the “log2(fold-change), gene Fkbp5” value [1] was -1.583. The “log2(fold-change), gene Mt2” value (spinal cord, 2B/- RG3039 vs 2B/- vehicle, adjusted p-value 2.67E-76) was -1.696, the “Smn transcripts as detected by RNA-Seq” value (spinal cord, 2B/- SMA mice) was “did not appear to increase Smn transcripts” and the “share of the measurable genes with altered expression” value (spinal cord, 2B/- SMA mice RG3039 vs vehicle) was “approximately 26.8%”. The “genes with significantly (P < 0.05) altered expression” value (spinal cord, 2B/- SMA mice RG3039 vs vehicle-treated 2B/-) was 5,497 genes, the “genes affected in opposite directions by disease and by compound treatment” value (spinal cord, 2B/- mice) was 591 genes and the “ZPR1 expression in whole spinal cord by RNA-seq” value (vehicle vs RG3039 treated SMA mice) was “no difference in ZPR1 expression”.
